The source of these data is patent US20240226094A1, “ALPHA PROTEIN KINASE 1 INHIBITORS FOR USE IN TREATING KAWASAKI DISEASE” (Shanghai Yao Yuan Biotechnology Co., Ltd., priority 2021, published 2024).

One assay deals with ALPK1 (Homo sapiens (Human), UniProt Q96QP1). The assay can be described thus: ALPK1 in vitro kinase assay (HTRF of TIFA phosphorylation). Type of assay: biochemical. How it is done:
ALPK1 kinase activity was measured in an in vitro assay using ADP-Heptose as the ALPK1 ligand and activator of its kinase activity and TIFA protein as the ALPK1 phosphorylation substrate. Since phosphorylated TIFA proteins oligomerize, Homogeneous Time-Resolved Fluorescence (HTRF) was used to measure protein:protein interaction between HA-tagged TIFA proteins as an indicator of TIFA phosphorylation.
In brief, dose-response studies were performed with HEK293 cells cultured in Dulbecco's Modified Eagle Medium (DMEM) supplemented 10% fetal bovine serum (FBS, Hyclone™) containing antibiotics (pen/strep, G418) in 384-well assay plates. Each well contained 0.1 mg TIFA, ALPK1 (2 nM final concentration in reaction mixture) and kinase buffer (100 mM of HEPES pH 7.4, 4 mM DTT, 40 mM MgCl2, 20 mM of β-Glycerol phosphate disodium salt, 0.4 mM of Na3VO4, 0.16 mg/mL). Titrations of the test compounds were prepared in dimethylsulphoxide (DMSO). The reaction was initiated by addition of ATP and ADP-Heptose.
For HTRF, samples were incubated with a Tb cryptate-labeled anti-HA antibody for capturing HA-tagged proteins according to the manufacturer's instructions (PerkinElmer™, CisBio™) and the fluorescence signal was quantified (Tecan Infinite F NANO+). HTRF signals were calculated as the HTRF ratio (ratio of fluorescence measured at 665 nm and 620 nm)×104 (thereby using the signal at 620 nm as an internal standard).
IC50 values were determined using 3- or 4-parameter logistic equation using GraphPad Prism version 6.00. The reference compound, A027, was used as a positive control for each plate.

Assay [1] concerns ALPK1-TIFA-IL1β pathway in THP-1-derived macrophage cells. The assay can be described thus: PMA-differentiated THP-1 cell based assay (IL1β mRNA after ALPK1 agonist). The settings on record: Homo sapiens; PMA-differentiated THP-1 cells, 2 h pretreatment, 4 h ALPK1 agonist; read-out: IC50 of IL1β mRNA induced by ALPK1 activation. How it is done:
Peripheral blood mononuclear cells (PBMCs) from Kawasaki patients show activation of ALPK1-TIFA-IL1β pathway. […] THP-1 cells were cultured in RPMI 1640 containing 10% heat inactivated FBS, penicillin (100 units/ml) and streptomycin ([…]), and maintained in a humidified incubator with 95% atmospheric air and 5% CO2. Prior to the experiment, THP-1 cells were seeded into 24-well flat-bottom plate at a cell density of […]. Phorbol myristate acetate (PMA; 50 ng/mil) was used to treat THP-i cells for 48 h, and then THP-1-derived macrophages were obtained. […] Total RNA was extracted using the TRIzol method and reverse-transcribed. The mRNA expression levels IL1β were detected by SYBR green gene expression assays. Expression levels of mRNA were normalized to GAPDH. Relative expression was calculated by comparing to vehicle control and the values were plotted as fold induction. All activity results were expressed as the mean of triplicate determinations.

The test system of assay [2] is ALPK1-dependent innate immunity gene expression. Put plainly: Inhibition of ALPK1 in coronary artery, aorta and heart muscle (innate immunity gene mRNA, RT-PCR). The settings on record: SD rats, 40 mpk oral, 2 h before ip ALPK1 agonist, tissue 3 h later, compared with vehicle group. The assay is classed as in vivo, Sprague-Dawley (SD) rats.
In assay [3] the test system is ALPK1-dependent innate immunity gene expression in PBMC. Put plainly: Inhibition of ALPK1 in PBMC cells (innate immunity gene mRNA, RT-PCR). Type of assay: in vivo, Sprague-Dawley (SD) rats. The conditions noted are these: SD rats, 10 mpk oral, 2 h before ip ALPK1 agonist, blood 3 h later, compared with vehicle group. How it is done:
We examined whether ALPK1 inhibitors can suppress ALPK1-dependent activation of a set of such genes in rats. […] PBMCs were collected and gene expression analyzed, as described in more detail below.
After 3 hours administration of the ALPK1 agonist, the blood was collected from heart, and PBMC were extracted from each group.

The test system of assay [4] is ALPK1-dependent NFκB reporter gene activation. Put plainly: NFκB gene reporter alkaline phosphatase assay in HEK293 G9 cells. The assay is classed as cell-based, human. The conditions noted are these: read-out: NFkB assay IC50. How it is done: An alkaline phosphatase reporter assay system was used to measure inhibition of ALPK1-dependent NFκB reporter gene activation. Briefly, HEK293 cells stably expressing an NF-kB reporter (referred to herein as “G9 cells”) were maintained in DMEM as described above. For the assay, cells were seeded into 96-well plates at a density of 10,000 cells/well in Freestyle-M 293 Expression Medium (ThermoFisher), and allowed to attach overnight. […] NFkB gene activation was detected using the chromogenic substrate, para-nitrophenyl phosphate (pNPP) according to the manufacturer's protocols (pNPP Phosphatase Assay, Beyotine Biotechnology).

Setting [5] is: ADP-Heptose activated ALPK1, TIFA substrate, HTRF.

Structures can show the parent of a compound that is named as a salt. Where two headings read alike, the source gives them in different places.

Chain of ALPK1 (Q96QP1 whole entry): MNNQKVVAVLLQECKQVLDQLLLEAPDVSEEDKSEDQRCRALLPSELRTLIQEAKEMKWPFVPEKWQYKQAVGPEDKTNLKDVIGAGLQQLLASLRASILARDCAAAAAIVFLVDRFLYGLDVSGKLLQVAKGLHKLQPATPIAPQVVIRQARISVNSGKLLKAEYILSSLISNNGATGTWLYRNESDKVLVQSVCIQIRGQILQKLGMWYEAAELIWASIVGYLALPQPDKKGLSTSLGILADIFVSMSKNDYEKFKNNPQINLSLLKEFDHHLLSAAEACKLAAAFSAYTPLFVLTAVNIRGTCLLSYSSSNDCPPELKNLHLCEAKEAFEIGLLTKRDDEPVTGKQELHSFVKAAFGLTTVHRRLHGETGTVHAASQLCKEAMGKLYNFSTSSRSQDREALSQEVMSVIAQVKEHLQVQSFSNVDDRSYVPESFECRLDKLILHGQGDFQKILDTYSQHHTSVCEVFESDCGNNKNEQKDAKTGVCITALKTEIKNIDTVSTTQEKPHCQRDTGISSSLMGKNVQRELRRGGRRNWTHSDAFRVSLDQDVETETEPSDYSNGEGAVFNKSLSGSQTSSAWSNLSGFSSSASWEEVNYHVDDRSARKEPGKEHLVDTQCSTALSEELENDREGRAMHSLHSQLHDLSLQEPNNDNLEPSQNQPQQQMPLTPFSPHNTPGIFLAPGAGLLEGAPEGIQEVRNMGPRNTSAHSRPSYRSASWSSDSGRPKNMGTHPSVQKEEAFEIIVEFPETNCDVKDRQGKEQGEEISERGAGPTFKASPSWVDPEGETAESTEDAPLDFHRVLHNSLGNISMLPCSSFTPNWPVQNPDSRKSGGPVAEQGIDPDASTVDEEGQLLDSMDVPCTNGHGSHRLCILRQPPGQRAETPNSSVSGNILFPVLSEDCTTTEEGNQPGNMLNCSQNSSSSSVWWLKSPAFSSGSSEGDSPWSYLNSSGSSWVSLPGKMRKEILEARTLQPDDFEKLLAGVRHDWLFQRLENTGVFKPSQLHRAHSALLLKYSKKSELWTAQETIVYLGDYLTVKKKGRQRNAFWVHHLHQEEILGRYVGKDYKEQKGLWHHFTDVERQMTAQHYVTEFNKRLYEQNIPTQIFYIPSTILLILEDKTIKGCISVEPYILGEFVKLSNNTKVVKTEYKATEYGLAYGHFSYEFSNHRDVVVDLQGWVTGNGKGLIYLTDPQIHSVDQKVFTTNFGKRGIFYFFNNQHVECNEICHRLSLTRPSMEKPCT

Turning to `C#CC(C)(c1ccc(OC)cc1)c1csc(NC(=O)NC(C)c2ccc(N3CCNCC3)cc2)n1` (stereo not drawn) [A234, 1-(4-(2-(4-methoxyphenyl)but-3-yn-2-yl)thiazol-2-yl)-3-(1-(4-(piperazin-1-yl)phenyl)ethyl)urea], it took 0.036 µM to reach half-maximal inhibition at ALPK1 (IC50).

For `C#C[C@@](C)(c1ccc(Cl)cc1)c1csc(NC(=O)c2c(F)cc(N3CCNCC3)cc2F)n1` [C008, (S)-N-(4-(2-(4-chlorophenyl)but-3-yn-2-yl)thiazol-2-yl)-2,6-difluoro-4-(piperazin-1-yl)benzamide], in assay [1], the 50% inhibitory concentration (IC50) stood at 0.015 µM. In assay [2], the “mRNA expression of aorta IL-6, CXCL-1, CXCL-10, CCL-2” value is “significantly decreased”; the “mRNA expression of cardiac muscle TNF-a, IL-1b, IL-6, CXCL-1, CXCL-10, CXCL-11, CCL-2 and CCL-5” value is “significantly decreased”; the “mRNA expression of coronary artery TNF-α, CXCL-1, CCL-2 and CCL-7” value is “significantly decreased”. The “mRNA expressions of PBMC CCL-7, CXCL-1, CXCL-10, CXCL-11, IL-1β, TNF-α and IL-6” value in assay [3] was “significantly decreased”.

In the case of `COc1ccc(C(C)(C)c2csc(NC(=O)NCc3cnccn3)n2)cc1` [A007, 1-(4-(2-(4-methoxyphenyl)propan-2-yl)thiazol-2-yl)-3-(pyrazin-2-ylmethyl)urea], the half-inhibitory concentration (IC50) against ALPK1 is 0.091 µM; in assay [4] (Homo sapiens, HEK293) it was 5.58 µM.

On to `C#C[C@@](C)(c1ccc(Cl)cc1)c1csc(NC(=O)NCCO)n1` [A176, (S)-1-(4-(2-(4-chlorophenyl)but-3-yn-2-yl)thiazol-2-yl)-3-(2-hydroxyethyl)urea], for which the half-inhibitory concentration (IC50) in assay [1] came out at 0.097 µM. In assay [3], the “mRNA expressions of PBMC CCL-2, CCL-7, CXCL-1, CXCL-10, CXCL-11 and IL-1β” value is “significantly decreased”.

Consider `CC(C)(c1ccc(I)cc1)c1csc(NC(=O)NCc2cnc(N3CCNCC3)nc2)n1` [A178, 1-(4-(2-(4-iodophenyl)propan-2-yl)thiazol-2-yl)-3-((2-(piperazin-1-yl)pyrimidin-5-yl)methyl)urea], for which inhibition against ALPK1 was half-maximal at 0.042 µM (IC50).

With `C#CC(C)(c1ccc(Cl)cc1)c1csc(NC(=O)c2ccc(N3CCNCC3)c(OC)c2)n1` (stereo not drawn) [B066, N-(4-(2-(4-chlorophenyl)but-3-yn-2-yl)thiazol-2-yl)-3-methoxy-4-(piperazin-1-yl)benzamide], on ALPK1 (setting [5]), the IC50 was determined as 0.029 µM.

Turning to `COc1ccc(C(C)(CO)c2csc(NC(=O)NC(C)c3ccc(N4CCNCC4)cc3)n2)cc1` (stereo not drawn) [A235, 1-(4-(1-hydroxy-2-(4-methoxyphenyl)propan-2-yl)thiazol-2-yl)-3-(1-(4-(piperazin-1-yl)phenyl)ethyl)urea], the IC50 at ALPK1 came out at 0.061 µM.

At ALPK1, `C#C[C@@](C)(c1ccc(F)cc1)c1csc(NC(=O)NCCO)n1` (stereo in doubt) [A283, 1-(4-(2-(4-fluorophenyl)but-3-yn-2-yl)thiazol-2-yl)-3-(2-hydroxyethyl)urea] displayed an IC50 of 0.55 µM.

Compound `C#CC(C)(c1ccc(Cl)cc1)c1csc(NC(=O)c2ccc(N3CCNCC3)cc2F)n1` (stereo not drawn) [B065, N-(4-(2-(4-chlorophenyl)but-3-yn-2-yl)thiazol-2-yl)-2-fluoro-4-(piperazin-1-yl)benzamide] had an IC50 on ALPK1 (setting [5]) of 0.034 µM.

Regarding `COc1ccc(C(C)(C)c2csc(NC(=O)NCc3cc(F)c(N4CCNCC4)cc3F)n2)cc1` [A231, 1-(2,5-difluoro-4-(piperazin-1-yl)benzyl)-3-(4-(2-(4-methoxyphenyl)propan-2-yl)thiazol-2-yl)urea hydrochloride], the IC50 in assay [4] (Homo sapiens, HEK293) amounted to 3.36 µM.

In turn, `C#C[C@@](C)(c1ccc(Cl)cc1)c1csc(NC(=O)N2CC(CO)C2)n1` [A258, (S)-N-(4-(2-(4-chlorophenyl)but-3-yn-2-yl)thiazol-2-yl)-3-(hydroxymethyl)azetidine-1-carboxamide] showed an IC50 against ALPK1 of 0.057 µM.

As to `C#C[C@](C)(c1ccc(OC)cc1)c1csc(NC(=O)N2CC(CO)C2)n1` [A255, (R)-3-(hydroxymethyl)-N-(4-(2-(4-methoxyphenyl)but-3-yn-2-yl)thiazol-2-yl)azetidine-1-carboxamide], on ALPK1, the 50% inhibitory concentration (IC50) was 0.109 µM.

Regarding `COc1ccc(C(C)(C)c2csc(NC(=O)NCc3cc(F)c(C4CCNCC4)c(F)c3)n2)cc1` [A151, 1-(3,5-difluoro-4-(piperidin-4-yl)benzyl)-3-(4-(2-(4-methoxyphenyl)propan-2-yl)thiazol-2-yl)urea hydrochloride], in assay [4] (Homo sapiens, HEK293), the concentration for half-maximal inhibition (IC50) stood at 0.95 µM.

Regarding `CC(C)(c1ccc(Br)cc1)c1csc(NC(=O)NCc2cccc(N3CCNCC3)c2)n1` [A005, 1-(4-(2-(4-bromophenyl)propan-2-yl)thiazol-2-yl)-3-(3-(piperazin-1-yl)benzyl)urea], the IC50 was 0.097 µM against ALPK1 and 3.15 µM in assay [4] (Homo sapiens, HEK293).

Regarding `C#C[C@@](C)(c1ccc(Cl)cc1)c1csc(NC(=O)c2ccc(N3CCNCC3)cc2)n1` (stereo in doubt) [B093, N-(4-(2-(4-chlorophenyl)but-3-yn-2-yl)thiazol-2-yl)-4-(piperazin-1-yl)benzamide], the concentration for half-maximal inhibition (IC50) at ALPK1 (setting [5]) amounted to 0.043 µM.

`C#CC(C)(c1ccc(Cl)cc1)c1csc(NC(=O)N2CCc3cc(N4CCNCC4)ccc3C2)n1` (stereo not drawn) [A281]: the concentration for half-maximal inhibition (IC50) in assay [4] is 0.86 µM.

As to `C#C[C@](C)(c1ccc(Cl)cc1)c1csc(NC(=O)c2ccc(N3CCNCC3)cc2)n1` (stereo in doubt) [B092, N-(4-(2-(4-chlorophenyl)but-3-yn-2-yl)thiazol-2-yl)-4-(piperazin-1-yl)benzamide], the midpoint of inhibition at ALPK1 (setting [5]), the IC50, lay at 0.219 µM.

As to `COc1ccc(C(C)(C)c2csc(NC(=O)N3CC(c4ccc(N5CCNCC5)cc4)C3)n2)cc1` [A233, N-(4-(2-(4-methoxyphenyl)propan-2-yl)thiazol-2-yl)-3-(4-(piperazin-1-yl)phenyl)azetidine-1-carboxamide], in assay [4] (Homo sapiens, HEK293), the IC50 amounted to 0.33 µM.

In the case of `COc1ccc(C(C)(C)c2csc(NC(=O)NCCCCNc3ccccc3)n2)cc1` [A147, 1-(4-(2-(4-methoxyphenyl)propan-2-yl)thiazol-2-yl)-3-(4-(phenylamino)butyl)urea], the concentration for half-maximal inhibition (IC50) against ALPK1 came out at 0.235 µM.

With `COc1ccc(C(C)(C)c2csc(NC(=O)NCc3ccc(N4CCC(N)C4)nc3)n2)cc1` (stereo not drawn) [A199, 1-((6-(3-aminopyrrolidin-1-yl)pyridin-3-yl)methyl)-3-(4-(2-(4-methoxyphenyl)propan-2-yl)thiazol-2-yl)urea], the IC50 in assay [4] (Homo sapiens, HEK293) was determined as 0.46 µM.

Compound `C#C[C@@](C)(c1ccc(OC)cc1)c1csc(NC(=O)N2CC(CO)C2)n1` [A256, (S)-3-(hydroxymethyl)-N-(4-(2-(4-methoxyphenyl)but-3-yn-2-yl)thiazol-2-yl)azetidine-1-carboxamide] returned an IC50 at ALPK1 of 0.043 µM.

Consider `C#CC(C)(c1ccc(Br)cc1)c1csc(NC(=O)NCCN2CCNCC2)n1` (stereo not drawn) [A239, 1-(4-(2-(4-bromophenyl)but-3-yn-2-yl)thiazol-2-yl)-3-(2-(piperazin-1-yl)ethyl)urea], for which, at ALPK1, the IC50 came to 0.02 µM.

For `C#C[C@](C)(c1ccc(Cl)cc1)c1csc(NC(=O)N2CC(CO)C2)n1` [A257, (R)-N-(4-(2-(4-chlorophenyl)but-3-yn-2-yl)thiazol-2-yl)-3-(hydroxymethyl)azetidine-1-carboxamide], the IC50 against ALPK1 was 0.246 µM.

A word on the IC50: it is the concentration needed to halve the response being measured.
